Measured values taken from patent US11512097B2, “Heterocyclic compounds as Delta-5 desaturase inhibitors and methods of use” (Amgen Inc., priority 2019, dated 2022).

Target: T1, Delta-5-Desaturase (D5D), membrane preparations of D5D-overexpressing HEK293 6E cells (Homo sapiens, UniProt O60427)
T1 construct: expressed in transfected cells; host or cells: HEK293 6E cells (membrane preparation)
Test: In vitro measurement of Delta-5-Desaturase inhibitory activity using DGLA-CoA and Arachidonyl-CoA mass spectrometric assays
Type: biochemical
Details: D5D membrane 10 μg/mL, one-hour incubation, average of at least two independent runs
Experimental: In Vitro Measurement of Delta-5-Desaturase Inhibitory Activity Using DGLA-CoA and Arachidonyl-CoA Mass Spectrometric Assays Membrane preparations of D5D-overexpressing HEK293 6E cells were prepared in which the total protein concentration was 5.6 mg/mL. Stock D5D membrane preparations were diluted in D5D assay buffer (25 mM 2-amino-2-(hydroxymethyl)-1,3-propanediol, pH 7.5 containing 10 mM MgCl2, 1 mM octyl glucoside (SigmaAldrich O-8001), 1 mM tris(2-carboxyethyl)phosphine hydrochloride (SigmaAldrich 646547)) to a final D5D membrane concentration of 10 μg/mL in an assay plate containing serially diluted test compounds. To 15 μL of this D5D preparation was added 15 μL of a substrate solution (0.25 mM NADH (nicotinamide adenine dinucleotide, Roche Diag. 10107735001), 0.25 mM adenosine triphosphate (SigmaAldrich A-3377), 0.05 mM coenzyme A hydrate (SigmaAldrich C-4282), and 0.01 mM DGLA (dihomo-g-linolenic acid, Sigma E-4504) in the same D5D assay buffer. After one-hour incubation at ambient temperature acetonitrile (30 μL) was added to quench the reaction and plates were centrifuged for 10 min @ 3,000 rpm. Mass spectrometric analysis involved a Rapidfire 360 SPE system coupled to an ABSciex API4000 Triple Quadrupole mass spectrometer using a C18 SPE cartridge (G9203-80105) with ionization in negative mode (solvent A=100% water; solvent B=100% acetonitrile, each solvent containing 5 mM ammonium acetate). DGLA-CoA and Arachidonyl-CoA were detected by multiple reaction monitoring (MRM) of the doubly charged parent ions at m/z 526.6 and 525.6, respectively. […] Sx is value from unknown sample, So is value from DMSO alone and Sc is value from no enzyme well. For CRC analysis, the % of inhibitions were analysed with 4 Parameter Logistic Model or Sigmoidal Dose-Response Model using XLfit (IDBS, Guilford, UK). The potency of the test item was expressed as IC50 nM, corresponding to the test item concentration able to inhibit the 50% of the enzyme maximal response. IC50 values were averaged values determined by at least two independent runs. The results presented in Table 15 have been generated with the in vitro assay described above. This assay may be used to test any of the compounds described herein to assess and characterize a compound's ability to inhibit D5D.

T1 sequence (O60427 whole entry, species assumed): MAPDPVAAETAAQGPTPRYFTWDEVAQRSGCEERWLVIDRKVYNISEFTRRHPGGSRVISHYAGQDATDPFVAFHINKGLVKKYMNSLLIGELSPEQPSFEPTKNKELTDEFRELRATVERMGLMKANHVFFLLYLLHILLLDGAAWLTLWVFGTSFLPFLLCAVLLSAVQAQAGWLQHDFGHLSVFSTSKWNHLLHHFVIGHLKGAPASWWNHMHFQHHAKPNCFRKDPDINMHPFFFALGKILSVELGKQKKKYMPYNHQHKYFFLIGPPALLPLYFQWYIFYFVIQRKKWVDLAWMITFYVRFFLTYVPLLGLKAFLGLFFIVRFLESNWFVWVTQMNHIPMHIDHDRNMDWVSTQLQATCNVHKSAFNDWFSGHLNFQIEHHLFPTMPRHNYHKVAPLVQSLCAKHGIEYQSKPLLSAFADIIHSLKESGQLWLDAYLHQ

Compound	IC50 [nM]
Cn1c(C2CC2)cn2c(=O)c(-c3cnn(CC(F)(F)C(F)(F)F)c3)c(C(F)(F)F)nc12 [Example 50, 2-cyclopropyl-1-methyl-6-[1-(2,2,3,3,3-pentafluoropropyl)-1H-pyrazol-4-yl]-7-(trifluoromethyl)-1H,5H-imidazo[1,2-a]pyrimidin-5-one]	120
Cc1nn2c(=O)c(-c3ccc(OCC(F)(F)F)cc3)c(C(F)(F)F)nc2s1 [Example 40, 2-methyl-6-[4-(2,2,2-trifluoroethoxy)phenyl]-7-(trifluoromethyl)-5H-[1,3,4]thiadiazolo[3,2-a]pyrimidin-5-one]	224
Cc1cn2c(=O)c(-c3cnn(CCC(F)(F)F)c3)c(C(F)(F)F)nc2n1C[C@@H]1CC1(F)F (single isomer, unassigned) [Example 115]	39
COc1nn2c(=O)c(-c3cnn(CC(F)(F)C(F)(F)F)c3)c(C(F)(F)F)nc2s1 [Example 43, 2-methoxy-6-[1-(2,2,3,3,3-pentafluoropropyl)-1H-pyrazol-4-yl]-7-(trifluoromethyl)-5H-[1,3,4]thiadiazolo[3,2-a]pyrimidin-5-one]	34
Cc1cn2c(=O)c(-c3cnn(CC4CC(F)(F)C4)c3)c(C(F)(F)F)nc2n1C [Example 60, 6-{1-[(3,3-difluorocyclobutyl)methyl]-1H-pyrazol-4-yl}-1,2-dimethyl-7-(trifluoromethyl)-1H,5H-imidazo[1,2-a]pyrimidin-5-one]	57.8
CN(C)Cc1nn2c(=O)c(-c3cnn(CC(F)(F)C(F)(F)F)c3)c(C(F)(F)F)nc2s1 [Example 105, 2-[(dimethylamino)methyl]-6-[1-(2,2,3,3,3-pentafluoropropyl)-1H-pyrazol-4-yl]-7-(trifluoromethyl)-5H-[1,3,4]thiadiazolo[3,2-a]pyrimidin-5-one]	10500
Cc1nn2c(=O)c(-c3ccn(CC(F)(F)C(F)(F)F)n3)c(C(F)(F)F)nc2s1 [Example 30, 2-methyl-6-[1-(2,2,3,3,3-pentafluoropropyl)-1H-pyrazol-3-yl]-7-(trifluoromethyl)-5H-[1,3,4]thiadiazolo[3,2-a]pyrimidin-5-one]	17900
Cc1cn2c(=O)c(-c3cnn(CC(F)(F)C(F)(F)F)c3)c(C(F)(F)F)nc2n1CCC1(O)CC1 [Example 89, 1-[2-(1-hydroxycyclopropyl)ethyl]-2-methyl-6-[1-(2,2,3,3,3-pentafluoropropyl)-1H-pyrazol-4-yl]-7-(trifluoromethyl)-1H,5H-imidazo[1,2-a]pyrimidin-5-one]	53.3
Cc1cn2c(=O)c(-c3cnn(CCC(F)(F)F)c3)c(C(F)(F)F)nc2n1-c1ccccn1 [Example 94, 2-methyl-1-(pyridin-2-yl)-7-(trifluoromethyl)-6-[1-(3,3,3-trifluoropropyl)-1H-pyrazol-4-yl]-1H,5H-imidazo[1,2-a]pyrimidin-5-one]	777
CCn1c(C)cn2c(=O)c(-c3cnn(CC(F)(F)C(F)(F)F)c3)c(C(F)(F)F)nc12 [Example 56, 1-ethyl-2-methyl-6-[1-(2,2,3,3,3-pentafluoropropyl)-1H-pyrazol-4-yl]-7-(trifluoromethyl)-1H,5H-imidazo[1,2-a]pyrimidin-5-one]	34.3
CC1Cn2c(nc(C(F)(F)F)c(-c3cnn(CC(F)(F)C(F)(F)F)c3)c2=O)S1 (stereo not drawn) [Example 24, 2-methyl-6-[1-(2,2,3,3,3-pentafluoropropyl)-1H-pyrazol-4-yl]-7-(trifluoromethyl)-2H,3H,5H-[1,3]thiazolo[3,2-a]pyrimidin-5-one]	168
Cc1cn2c(=O)c(-c3cnn(CC(F)(F)C(F)(F)F)c3)c(C(F)(F)F)nc2n1CC(C)(C)O [Example 88, 1-(2-hydroxy-2-methylpropyl)-2-methyl-6-[1-(2,2,3,3,3-pentafluoropropyl)-1H-pyrazol-4-yl]-7-(trifluoromethyl)-1H,5H-imidazo[1,2-a]pyrimidin-5-one]	631
COC(=O)n1c(C)cn2c(=O)c(-c3cnn(CC(F)(F)C(F)(F)F)c3)c(C(F)(F)F)nc12 [Example 80, methyl 2-methyl-5-oxo-6-[1-(2,2,3,3,3-pentafluoropropyl)-1H-pyrazol-4-yl]-7-(trifluoromethyl)-1H,5H-imidazo[1,2-a]pyrimidine-1-carboxylate]	54.7
Cc1cn2c(=O)c(-c3cnn(CC(F)(F)C(F)(F)F)c3)c(C(F)(F)F)nc2n1-c1ccncc1 [Example 102, 2-methyl-6-[1-(2,2,3,3,3-pentafluoropropyl)-1H-pyrazol-4-yl]-1-(pyridin-4-yl)-7-(trifluoromethyl)-1H,5H-imidazo[1,2-a]pyrimidin-5-one]	8400
Cc1cn2c(=O)c(-c3cnn(CC(F)(F)C(F)(F)F)c3)c(C(F)(F)F)nc2n1-c1cccnc1 [Example 98, 2-methyl-6-[1-(2,2,3,3,3-pentafluoropropyl)-1H-pyrazol-4-yl]-1-(pyridin-3-yl)-7-(trifluoromethyl)-1H,5H-imidazo[1,2-a]pyrimidin-5-one]	2400
Cc1cn2c(=O)c(-c3cnn(CC(F)(F)C(F)(F)F)c3)c(C(F)(F)F)nc2n1-c1cncnc1 [Example 99, 2-methyl-6-[1-(2,2,3,3,3-pentafluoropropyl)-1H-pyrazol-4-yl]-1-(pyrimidin-5-yl)-7-(trifluoromethyl)-1H,5H-imidazo[1,2-a]pyrimidin-5-one]	36100

Stronger by IC50, values ahead:

IC50 [nM]	Compound
31.5	Cc1cn2c(=O)c(-c3cnn(CC(F)(F)C(F)(F)F)c3)c(C(F)(F)F)nc2n1C(C)C [Example 58, 2-methyl-6-[1-(2,2,3,3,3-pentafluoropropyl)-1H-pyrazol-4-yl]-1-(propan-2-yl)-7-(trifluoromethyl)-1H,5H-imidazo[1,2-a]pyrimidin-5-one]
28	[2H]C([2H])([2H])n1c(C)cn2c(=O)c(-c3cnn(CCC(F)(F)F)c3)c(C(F)(F)F)nc12 [Example 78, 1-(^2H3)methyl-2-methyl-7-(trifluoromethyl)-6-[1-(3,3,3-trifluoropropyl)-1H-pyrazol-4-yl]-1H,5H-imidazo[1,2-a]pyrimidin-5-one]
27.4	COCc1nn2c(=O)c(-c3cnn(CCC(F)(F)F)c3)c(C(F)(F)F)nc2s1 [Example 10, 2-(methoxymethyl)-7-(trifluoromethyl)-6-[1-(3,3,3-trifluoropropyl)-1H-pyrazol-4-yl]-5H-[1,3,4]thiadiazolo[3,2-a]pyrimidin-5-one]
25.7	CN1C(=O)Cn2c1nc(C(F)(F)F)c(-c1cnn(CC(F)(F)C(F)(F)F)c1)c2=O [Example 3, 1-methyl-6-[1-(2,2,3,3,3-pentafluoropropyl)-1H-pyrazol-4-yl]-7-(trifluoromethyl)-1H,2H,3H,5H-imidazo[1,2-a]pyrimidine-2,5-dione]
24.1	Cc1cn2c(=O)c(-c3cnn(C[C@@H]4CC4(F)F)c3)c(C(F)(F)F)nc2n1C (single isomer, unassigned) [Example 110]
11	Cc1cn2c(=O)c(-c3cnn(CC4CC4(F)F)c3)c(C(F)(F)F)nc2n1C (stereo not drawn) [Example 59, 6-{1-[(2,2-difluorocyclopropyl)methyl]-1H-pyrazol-4-yl}-1,2-dimethyl-7-(trifluoromethyl)-1H,5H-imidazo[1,2-a]pyrimidin-5-one]
6.4	O=c1c(-c2cnn(CC(F)(F)C(F)(F)F)c2)c(C(F)(F)F)nc2sc(Cl)cn12 [Example 9, 2-chloro-6-[1-(2,2,3,3,3-pentafluoropropyl)-1H-pyrazol-4-yl]-7-(trifluoromethyl)-5H-[1,3]thiazolo[3,2-a]pyrimidin-5-one]
6.3	Cc1cn2c(=O)c(-c3ccc(OCC(F)(F)F)cc3)c(C(F)(F)F)nc2[nH]1 [Example 75, 2-methyl-6-[4-(2,2,2-trifluoroethoxy)phenyl]-7-(trifluoromethyl)-1H,5H-imidazo[1,2-a]pyrimidin-5-one]
2.9	Cc1cn2c(=O)c(-c3cnn(CC(F)(F)C(F)(F)F)c3)c(C(F)(F)F)nc2n1CC1CC1 [Example 62, 1-(cyclopropylmethyl)-2-methyl-6-[1-(2,2,3,3,3-pentafluoropropyl)-1H-pyrazol-4-yl]-7-(trifluoromethyl)-1H,5H-imidazo[1,2-a]pyrimidin-5-one]
2.6	Cn1ncn2c(=O)c(-c3cnn(CC(F)(F)C(F)(F)F)c3)c(C(F)(F)F)nc12 [Example 27, 1-methyl-6-[1-(2,2,3,3,3-pentafluoropropyl)-1H-pyrazol-4-yl]-7-(trifluoromethyl)-1H,5H-[1,2,4]triazolo[4,3-a]pyrimidin-5-one]
1.3	O=c1c(-c2cnn(CC(F)(F)C(F)(F)F)c2)c(C(F)(F)F)nc2sc(F)cn12 [Example 7, 2-fluoro-6-[1-(2,2,3,3,3-pentafluoropropyl)-1H-pyrazol-4-yl]-7-(trifluoromethyl)-5H-[1,3]thiazolo[3,2-a]pyrimidin-5-one]
